TGI and GI50 data for 6 compounds are collected here from PubChem BioAssay (NCI).

Where “and” joins values, the source holds several entries; their conditions need not be identical. Equal entries are not always repeated.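 Protocol summary: plate cells (96-well), add compound at 5 concentrations, incubate 48 h, interpolate endpoints linearly. GI50 marks 50% less growth. TGI: total growth inhibition.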

Some test systems named below: MDA-MB-231 breast; T-47D breast; OVCAR-8 ovarian; HCT-116 colon; U251 CNS; OVCAR-5 ovarian; NCI-H522 lung; MOLT-4 leukemia; HS 578T breast; TK-10 renal.
What all share (assay): growth of human tumour cells (NCI), 48 h

Turning to `O=[N+]([O-])c1cc(Cc2cc([N+](=O)[O-])c3cccnc3c2O)c(O)c2ncccc12`, the TGI with MDA-MB-231 breast is 25.9 µM; in the assay on T-47D breast it was 18 µM; with OVCAR-8 ovarian, above 42.9 µM; in the assay with HCT-116 colon, 16.9 µM; in the assay on U251 CNS, 19.1 µM; in the assay with OVCAR-5 ovarian, 76.1 µM. The TGI with NCI-H522 lung is 38 µM; in the assay on MOLT-4 leukemia, above 30.4 µM; with HS 578T breast, 52.1 µM; in the assay with TK-10 renal, 48.3 µM.
As for `COc1ccc(C2CC(c3ccc(N(C)C)cc3)=NN2c2ccc(S(N)(=O)=O)cc2)cc1` (configuration not stated), the GI50 is 4.73 µM with MDA-MB-231 breast; 4.51 µM in the assay with T-47D breast; 3.98 µM in the assay on OVCAR-8 ovarian; 2.12 µM in the assay on HCT-116 colon; 3.28 µM with U251 CNS; 6.57 µM in the assay with OVCAR-5 ovarian. Also, the GI50 in the assay on NCI-H522 lung is 2.69 µM; in the assay on MOLT-4 leukemia, 3.91 µM; in the assay on HS 578T breast, 5.52 µM; in the assay with TK-10 renal, 4.32 µM. The TGI was 60.3 µM with MDA-MB-231 breast; above 100 µM in the assay with T-47D breast; above 100 µM with OVCAR-8 ovarian; 4.77 µM with HCT-116 colon; above 100 µM in the assay on U251 CNS; above 100 µM in the assay on OVCAR-5 ovarian. In addition, the TGI was 6.69 µM with NCI-H522 lung, above 100 µM with MOLT-4 leukemia, 42.6 µM in the assay on HS 578T breast and 35 µM in the assay on TK-10 renal.
Turning to `Cn1c(C(=O)c2cccc3ccccc23)nc2ccccc21`, the GI50 was above 100 µM with MDA-MB-231 breast; 22 µM in the assay on T-47D breast; above 100 µM in the assay with OVCAR-8 ovarian; above 100 µM with HCT-116 colon; above 100 µM with U251 CNS; above 100 µM in the assay with OVCAR-5 ovarian. For the same compound, the GI50 with NCI-H522 lung, in the assay on MOLT-4 leukemia, with HS 578T breast and with TK-10 renal was above 100 µM in each case. Also, the TGI with MDA-MB-231 breast, in the assay on T-47D breast, in the assay with OVCAR-8 ovarian, in the assay with HCT-116 colon, with U251 CNS and with OVCAR-5 ovarian was above 100 µM in each case. The TGI in the assay on NCI-H522 lung, in the assay with MOLT-4 leukemia, with HS 578T breast and in the assay with TK-10 renal was above 100 µM each time.
As to `COCCOCCOCCOCCOC(=O)OC[n+]1ccc(NC(=NCCCCCCOc2ccc(Cl)cc2)NC#N)cc1`, the GI50 was 5.19 µM in the assay with MDA-MB-231 breast; 0.112 µM with T-47D breast; below 0.01 µM in the assay with OVCAR-8 ovarian; below 0.01 µM in the assay with HCT-116 colon; 3.98 µM with OVCAR-5 ovarian; 1.95 µM in the assay with MOLT-4 leukemia. In addition, the GI50 in the assay on HS 578T breast is 1.11 µM; in the assay on TK-10 renal, 13.2 µM. For the same compound, the TGI was 23.7 µM with MDA-MB-231 breast; 17.5 µM with T-47D breast; 20.8 µM in the assay with OVCAR-8 ovarian; 11.8 µM with HCT-116 colon; 18.7 µM with U251 CNS; 22 µM with OVCAR-5 ovarian. For the same compound, the TGI with NCI-H522 lung turned out to be 18.7 µM; in the assay with MOLT-4 leukemia it was 19.5 µM; with HS 578T breast, 43.6 µM; in the assay with TK-10 renal, 26.4 µM.
`C=CC(=O)N[C@@H](/C=C/C(=O)OCC)Cc1ccc(-c2cc(Cl)cc(Cl)c2)cc1`: the GI50 in the assay on MDA-MB-231 breast is 12.8 µM; with T-47D breast it was 3.35 µM; in the assay with OVCAR-8 ovarian, 8.89 µM; with HCT-116 colon, 5.29 µM; with U251 CNS, 17.2 µM; in the assay on OVCAR-5 ovarian it was 21.6 µM. Besides, the GI50 is 7.6 µM with NCI-H522 lung, 7.14 µM with MOLT-4 leukemia, 16.3 µM in the assay on HS 578T breast and 21.9 µM in the assay on TK-10 renal. In addition, the TGI in the assay on MDA-MB-231 breast was 48.8 µM; with T-47D breast, 28 µM; in the assay with OVCAR-8 ovarian it was above 100 µM; in the assay on HCT-116 colon, 34.2 µM; in the assay on U251 CNS, above 100 µM; in the assay on OVCAR-5 ovarian, above 100 µM. The TGI with NCI-H522 lung was 24.9 µM; in the assay on MOLT-4 leukemia it was above 100 µM; in the assay on HS 578T breast it was 78.4 µM; in the assay on TK-10 renal it was 97.7 µM.
Consider `O=c1[nH]c2ccccc2n1C1CCN(CCCC(c2ccc(F)cc2)c2ccc(F)cc2)CC1`, for which the GI50 was 1.33 µM and 7.38 µM in the assay on MDA-MB-231 breast; 1.06 µM and 4.22 µM in the assay with T-47D breast; 1.58 µM and 9.14 µM in the assay on OVCAR-8 ovarian; 1.44 µM and 5.67 µM in the assay on HCT-116 colon; 1.49 µM and 5.24 µM with U251 CNS; 1.74 µM in the assay on OVCAR-5 ovarian. In addition, the GI50 with NCI-H522 lung is 1.73 µM; with MOLT-4 leukemia, 2.23 µM; in the assay with HS 578T breast, 1.83 µM and 7.71 µM; in the assay on TK-10 renal it was 1.54 µM and 6.93 µM. Also, the TGI in the assay on T-47D breast was 2.67 µM and 17.7 µM; in the assay on OVCAR-8 ovarian, 3.28 µM and 24.3 µM; in the assay with HCT-116 colon, 3.14 µM and 17.8 µM; in the assay with U251 CNS, 2.9 µM and 14.1 µM; in the assay on OVCAR-5 ovarian it was 3.51 µM and 22.8 µM; in the assay with NCI-H522 lung, 3.36 µM and 10.4 µM. The TGI in the assay on MOLT-4 leukemia was 5.75 µM and 16.6 µM; in the assay with HS 578T breast it was 4.47 µM and 24.8 µM; with TK-10 renal it was 2.95 µM and 16.1 µM.
